Marks after values point to notes of the source that are not given here.
Assays:
[1] = tested on: skin hair follicles and sebaceous glands of rats; test: Rat hair loss model: histopathological grading of skin hair follicles and sebaceous glands; type: in vivo, Wistar rats; settings: 60 days, 10 rats per group; for number of rats with hair follicle and sebaceous gland grade +++: grade +++ (most severe); for number of rats with hair follicle and sebaceous gland grade ±: grade ± (lesions limited); for number of rats with hair follicle and sebaceous gland grade −: grade − (normal structure)
Excerpt: (§1) Wistar rats were, according to weights, randomly divided into the negative control group (75% ethanol for external use), model group (75% ethanol for external use), positive control group (external 5% minoxidil tincture), CLY-1 external treatment group (external 5% CLY-1 tincture), CLY-2 external treatment group (external 5% CLY-2 tincture), CLY-3 external treatment group (external 5% CLY-3 tincture), CLY-4 external treatment group (external 5% CLY-4 tincture), and CLY-5 external treatment group (external 5% CLY-5 tincture) according to their body weight CLY-8 external treatment group (external 5% CLY-8 tincture), CLY-11 external treatment group (external 5% CLY-11 tincture), CLY-19 external treatment group (external 5% CLY-19 tincture), CLY-36 external treatment group (external 5% CLY-36 tincture), CLY-39 external treatment group (external 5% CLY-39 tincture), CLY-1 intravenous injection group (2 mg/kg·d), CLY-3 intravenous injection group (2 mg/kg·d), CLY-4 intravenous injection group (2 mg/kg·d) CLY-5 intravenous injection group (2 mg/kg·d), CLY-8 intravenous injection group (2 mg/kg·d), CLY-11 intravenous injection group (2 mg/kg·d), CLY-19 intravenous injection group (2 mg/kg·d), CLY-36 intravenous injection group (2 mg/kg·d), and CLY-39 intravenous injection group (2 mg/kg·d), with 10 rats in each group. Before the experiment, an area of 4 cm×5 cm was selected on each rat on the back of the neck to remove hair as the observation area. In addition to the negative control group, rats were subcutaneously injected with testosterone propionate injection [5 ml/(kg·d)] once a day for 60 days to establish the androgenic alopecia (AGA) model. […] At the same time, the drug was applied to the observation area on the back of the rats in the corresponding drug group at the rate of 2 mL/(one time), twice a day, at an interval of 8 hours; Intravenous administration once a day. The negative control group and the model control group were smeared with 75% ethanol solution, 2 mL/(one rat per time), twice a day, for 60 days.
Took 10 hairs from the observation area on the back of each rat every 15 days after administration, and measured the hair length with a vernier caliper. After 60 days of administration, the skin of the experimental observation area was taken for routine tissue dehydration, paraffin embedding, HE staining, and light microscopy to observe the histopathological changes of the rat skin hair follicles and sebaceous glands. Semi-quantitative analysis was performed for each group. The grading criteria are as follows: the normal structure of dermal tissue cells, subcutaneous hair follicles, and sebaceous glands is marked as […]: no hyperplasia of dermal tissue is found, the lesions of hair follicles and sebaceous glands are limited, and no inflammation is found under the skin is marked as “+”: no obvious hyperplasia of dermal tissue is found, and the follicles are obviously cystic. No obvious hyperplasia of sebaceous glands is found, and no inflammation is found under the skin is marked as “+”: the dermal tissue has segmental hyperplasia, which is not obvious, A small number of hair follicles have cystic changes, and the sebaceous glands have mild hyperplasia and hypertrophy. There is no obvious inflammation under the skin, which is marked as “++”: the dermal tissue cells of the skin have different degrees of segmental hyperplasia, and some hair follicles have cystic changes, showing uneven size of hair follicles, and no cells around. The sebaceous glands have hyperplasia, and the nuclei in the proliferative glands are few. A few rats have mild inflammatory hyperplasia under the skin, which is marked as “+++”.

rat hair loss model = test: Rat hair loss (androgenic alopecia) model: hair length; type: in vivo, Wistar rats; settings: for 15-day hair length / 30-day hair length / 45-day hair length / 60-day hair length: rat AGA model; for adverse reactions: rat hair loss model, external use and system application, 60 days
Excerpt: (1) Compound CLY-1, CLY-2, CLY-3, CLY-4, CLY-5, CLY-8, CLY-11, CLY-19, CLY-36, CLY-39 tincture preparation method: 75% ethanol was mixed with appropriate amount of above compounds to prepare a tincture of different concentrations.
(2) Positive treatment drug: 5% minoxidil tincture (trade name: Mandi, Zhejiang Wanma Pharmaceutical Co., Ltd.).
as §1
Took 10 hairs from the observation area on the back of each rat every 15 days after administration, and measured the hair length with a vernier caliper. After 60 days of administration, the skin of the experimental observation area was taken for routine tissue dehydration, paraffin embedding, HE staining, and light microscopy to observe the histopathological changes of the rat skin hair follicles and sebaceous glands. Semi-quantitative analysis was performed for each group. The grading criteria are as follows: the normal structure of dermal tissue cells, subcutaneous hair follicles, and sebaceous glands is marked as […]: no hyperplasia of dermal tissue is found, the lesions of hair follicles and sebaceous glands are limited, and no inflammation is found under the skin is marked as “+”: no obvious hyperplasia of dermal tissue is found, and the follicles are obviously cystic. No obvious hyperplasia of sebaceous glands is found, and no inflammation is found under the skin is marked as “+”: the dermal tissue has segmental hyperplasia, which is not obvious, A small number of hair follicles have cystic changes, and the sebaceous glands have mild hyperplasia and hypertrophy. There is no obvious inflammation under the skin, which is marked as “++”: the dermal tissue cells of the skin have different degrees of segmental hyperplasia, and some hair follicles have cystic changes, showing uneven size of hair follicles, and no cells around. The sebaceous glands have hyperplasia, and the nuclei in the proliferative glands are few. […]

[2] = external 5% tincture twice a day
[3] = intravenous injection 2 mg/kg·d

SMILES | number of rats with hair follicle and sebaceous gland grade +++ ([1]; external 5% tincture) | number of rats with hair follicle and sebaceous gland grade +++ ([1]; intravenous 2 mg/kg·d) | number of rats with hair follicle and sebaceous gland grade ++ ([1]; external 5% tincture) | number of rats with hair follicle and sebaceous gland grade ++ ([1]; intravenous 2 mg/kg·d) | number of rats with hair follicle and sebaceous gland grade + ([1]; external 5% tincture) | number of rats with hair follicle and sebaceous gland grade + ([1]; intravenous 2 mg/kg·d) | number of rats with hair follicle and sebaceous gland grade ± ([1]; external 5% tincture) | number of rats with hair follicle and sebaceous gland grade ± ([1]; intravenous 2 mg/kg·d) | number of rats with hair follicle and sebaceous gland grade − ([1]; external 5% tincture) | number of rats with hair follicle and sebaceous gland grade − ([1]; intravenous 2 mg/kg·d) | 15-day hair length (rat hair loss model; [2]) | 30-day hair length (rat hair loss model; [2]) | 45-day hair length (rat hair loss model; [2]) | 60-day hair length (rat hair loss model; [2]) | 15-day hair length (rat hair loss model; [3]) | 30-day hair length (rat hair loss model; [3]) | 45-day hair length (rat hair loss model; [3]) | 60-day hair length (rat hair loss model; [3]) | adverse reactions (rat hair loss model)
Nc1ccccc1-c1ccc(C(=O)N(c2ncccc2Cl)[C@@H]2CCCNC2)cc1 [CLY-39] | 0 | 0 | 1 | 1 | 3 | 2 | 6 | 7 | 0 | 0 | 9.1* mm | 9.3* mm | 14.8* mm | 18.2* mm | 9.3* mm | 9.9* mm | 14.9* mm | 18.1* mm | no obvious adverse reactions
O=C(c1ccc(-c2ccccc2Cl)cc1)N(c1ncccc1Cl)[C@@H]1CCCNC1 [CLY-36] | 0 | 0 | 3 | 3 | 2 | 1 | 5 | 6 | 0 | 0 | 8.1* mm | 8.7* mm | 13.81* mm | 17.1* mm | 8.6* mm | 9.2* mm | 14.2* mm | 17.3* mm | no obvious adverse reactions
O=C(c1ccc(-c2ccccc2-c2nnn[nH]2)cc1)N(c1ncccc1Cl)[C@@H]1CCCNC1 [CLY-19] | 0 | 0 | 2 | 2 | 3 | 2 | 5 | 6 | 0 | 0 | 8.5* mm | 9.4* mm | 14.02* mm | 17.6* mm | 8.8* mm | 9.7* mm | 14.9* mm | 17.8* mm | no obvious adverse reactions
NC1CCCC(N(C(=O)c2ccc(-n3nnc4cccnc43)cc2)c2ncccc2Cl)C1 (stereo not drawn) [CLY-11] | 0 | 0 | 1 | 1 | 4 | 3 | 5 | 6 | 0 | 0 | 8.2* mm | 9.1* mm | 13.89* mm | 17.4* mm | 8.6* mm | 9.3* mm | 14.7* mm | 17.6* mm | no obvious adverse reactions
O=C(c1ccc(-n2nnc3cccnc32)cc1)N(c1ncccc1Cl)[C@@H]1CCNC1 [CLY-8, (R)-4-(3H-[1,2,3]triazolo[4,5-b]pyridin-3-yl)-N-(3-chloropyridin-2-yl)-N-(pyrrolidin-3-yl)benzamide] | 0 | 0 | 0 | 0 | 3 | 2 | 7 | 8 | 0 | 0 | 9.3* mm | 10.3* mm | 15.7* mm | 19.2* mm | 7.3* mm | 9.5* mm | 13.8* mm | 17.8* mm | no obvious adverse reactions
O=C(c1ccc(-n2nnc3cccnc32)cc1)N(c1ncccc1Cl)C1CCCC(O)C1 (stereo not drawn) [CLY-4] | 0 | 0 | 3 | 1 | 4 | 5 | 3 | 4 | 0 | 0 | 7.2* mm | 8.3* mm | 12.26* mm | 16.1* mm | 7.1* mm | 8.6* mm | 13.5* mm | 16.3* mm | no obvious adverse reactions
Nc1cc(N2CCCCC2)nc(N)[n+]1[O-] [Positive control group, minoxidil, reference compound] | 1 | – | 3 | – | 4 | – | 2 | – | 0 | – | 7.6* mm | 8.5* mm | 13.1* mm | 16.2* mm | – | – | – | – | –

Source: US20240300945A1, “CLY SERIES COMPOUND, PREPARATION METHOD THEREFOR AND USE THEREOF IN PREPARATION OF DRUGS” (NANJING WELLBEST PHARMACEUTICAL CO., LTD, priority 2021, published 2024)
